Measured values as given in patent US8455484B2, “Selected inhibitors of protein tyrosine kinase activity” (MethylGene Inc., priority 2010, dated 2013).

Legend:
VEGFR2 (KDR) = molecular target: T1, VEGFR2 (KDR) (Homo sapiens, UniProt P35968); experiment: In vitro receptor tyrosine kinase assay (VEGF receptor KDR), DELFIA; format: biochemical; settings: recombinant GST-VEGFR2 catalytic domain, ATP 0.6 uM, enzyme 5 nM; read-out: VEGFR IC50
T1 construct: made in house; host or cells: Sf9 cells (Spodoptera frugiperda), baculovirus
T1 sequence (P35968 806-1356): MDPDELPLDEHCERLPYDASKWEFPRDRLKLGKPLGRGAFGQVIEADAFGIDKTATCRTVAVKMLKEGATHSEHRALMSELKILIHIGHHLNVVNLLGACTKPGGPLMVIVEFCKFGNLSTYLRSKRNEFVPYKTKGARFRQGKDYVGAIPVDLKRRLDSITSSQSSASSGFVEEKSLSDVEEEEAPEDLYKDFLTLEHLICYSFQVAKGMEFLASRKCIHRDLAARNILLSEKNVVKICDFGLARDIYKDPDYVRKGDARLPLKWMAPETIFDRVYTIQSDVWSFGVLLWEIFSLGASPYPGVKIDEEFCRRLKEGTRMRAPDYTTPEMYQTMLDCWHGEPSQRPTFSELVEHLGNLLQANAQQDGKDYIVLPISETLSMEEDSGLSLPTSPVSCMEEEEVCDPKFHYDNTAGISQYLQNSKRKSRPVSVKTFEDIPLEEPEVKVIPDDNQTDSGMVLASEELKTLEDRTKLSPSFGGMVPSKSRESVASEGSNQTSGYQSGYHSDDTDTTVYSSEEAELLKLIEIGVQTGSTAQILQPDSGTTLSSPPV
From the text: This test measures the ability of compounds to inhibit the enzymatic activity of recombinant human VEGF receptor enzymatic activity.
A 1.6-kb cDNA corresponding to the catalytic domain of VEGFR2 (KDR) (Genbank accession number AF035121 amino acid 806 to 1356) is cloned into the Pst I site of the pDEST20 Gateway vector (Invitrogen) for the production of a GST-tagged version of that enzyme. This constuct is used to generate recombinant baculovirus using the Bac-to-Bac™ system according to the manucfacturer's instructions (Invitrogen).
The GST-VEGFR2806-1356 protein is expressed in Sf9 cells (Spodoptera frugiperda) upon infection with recombinant baculovirus construct. Briefly, Sf9 cells grown in suspension and maintained in serum-free medium (Sf900 II supplemented with gentamycin) at a cell density of about 2×10^6 cells/ml are infected with the above-mentioned viruses at a multiplicity of infection (MOI) of 0.1 during 72 hours at 27° C. with agitation at 120 rpm on a rotary shaker. Infected cells are harvested by centrifugation at 398 g for 15 min. Cell pellets are frozen at −80° C. until purification is performed.
All steps described in cell extraction and purification are performed at 4° C. Frozen Sf9 cell pellets infected with the GST-VEGFR2806-1356 recombinant baculovirus are thawed and gently resuspended in Buffer A (PBS pH 7.3 supplemented with 1 μg/ml pepstatin, 2 μg/ml Aprotinin and leupeptin, 50 μg/ml PMSF, 50 μg/ml TLCK and 10 μM E64 and 0.5 mM DTT) using 3 ml of buffer per gram of cells. Suspension is Dounce homogenized and 1% Triton X-100 is added to the homogenate after which it is centrifuged at 22500 g, 30 min., 4° C. The supernatant (cell extract) is used as starting material for purification of GST-VEGFR2806-1356.
The supernatant is loaded onto a GST-agarose column (Sigma) equilibrated with PBS pH 7.3. Following a four column volume (CV) wash with PBS pH 7.3+1% Triton X-100 and 4 CV wash with buffer B (50 mM Tris pH 8.0, 20% glycerol and 100 mM NaCl), bound proteins are step eluted with 5 CV of buffer B supplemented with 5 mM DTT and 15 mM glutathion. GST-VEGFR2806-1356 enriched fractions from this chromatography step are pooled based on U.V. trace i.e. fractions with high O.D.280. Final GST-VEGFR2806-1356 protein preparations concentrations are about 0.7 mg/ml with purity approximating 70%. Purified GST-VEGFR2806-1356 protein stocks are aliquoted and frozen at −80° C. prior to use in enzymatic assay.
Inhibition of VEGFR/KDR is measured in a DELFIA™ assay (Perkin Elmer). The substrate poly(Glu4, Tyr) is immobilized onto black high-binding polystyrene 96-well plates. The coated plates are washed and stored at 4° C. During the assay, the enzyme is pre-incubated with inhibitor and Mg-ATP on ice in polypropylene 96-well plates for 4 minutes, and then transferred to the coated plates. The subsequent kinase reaction takes place at 30° C. for 10-30 minutes. ATP concentrations in the assay are 0.6 uM for VEGFR/KDR (2× the Km). Enzyme concentration is 5 nM. After incubation, the kinase reactions are quenched with EDTA and the plates are washed. Phosphorylated product is detected by incubation with Europium-labeled anti-phosphotyrosine MoAb. After washing the plates, bound MoAb is detected by time-resolved fluorescence in a Gemini SpectraMax reader (Molecular Devices). Compounds are evaluated over a range of concentrations, and IC50 values (concentration of compounds giving 50% inhibition of enzymatic activity) are determined.

CNV progression = experiment: In vivo choroidal neovascularization (CNV) model; parameters: species or system Brown-Norway rats; settings: injection into right eye on Day 3, CNV area on Day 10, vs vehicle-treated group
From the text: This test measures the capacity of compounds to inhibit CNV progression. CNV is the main cause of severe vision loss in patients suffering from age-related macular degeneration (AMD).
Male Brown-Norway rats (Japan Clea Co., Ltd.) were used in these studies.
Rats were anesthetized by intraperitoneal injection of pentobarbital, and the right pupil was dilated with 0.5% tropicamide and 0.5% phenylephrine hydrochloride. The right eye received 6 laser burns between retinal vessels using a slit lamp delivery system of Green laser Photocoagulator (Nidex Inc., Japan), and microscope slide glass with Heaton™ (AMO Inc) used as a contact lens. The laser power was 100 or 200 mW for 0.1 second and spot diameter was 100 μm. At the time of laser burn, bubble production was observed, which is an indication of rupture of Bruch's membrane which is important for CNV generation.
Rats were divided into the groups based on their body weight using SAS software (SAS institute Japan, R8.1) after laser irradiation (Day 0). After animals were anesthetized, and the right pupil dilated (as above mentioned), the right eye of the animal received the compound or vehicle by an injection (10 μL/eye) at doses of 10 or 3 nmol/eye on Day 3. The compounds were dissolved or suspended in CBS, PBS, or other adequate vehicles before injection.
On Day 10, the animals were anesthetized with ether, and high molecular weight fluorescein isothiocyanate (FITC)-dextran (SIGMA, 2×10^6 MW) was injected via a tail vein (20 mg/rat). About 30 min after FITC-dextran injection, animals were euthanized by ether or carbon dioxide, and the eyes were removed and fixed with 10% formaline neutral buffer solution. After over 1 hour of fixation, RPE-choroid-sclera flat mounts were obtained by removing cornea, lens and retina from the eyeballs. The flat mounts were mounted in 50% glycerol on a microscope slide, and the portion burned by laser was photographed using a fluorescence microscope (Nikon Corporation, excitation filter:465-495 nm, absorption filter:515-555 nm). The CNV area was obtained by measurement of hyper-fluorescence area observed on the photograph using Scion image.
The average CNV area of 6 burns was used as an individual value of CNV area, and the average CNV area of compound treated group was compared with that of the vehicle-treated group.

[1] = system: VEGF-induced retinal vascular permeability; experiment: VEGF-induced retinal vascular permeability in rabbits; format: in vivo, Dutch rabbits; settings: intravitreal injection, human VEGF165 500 ng, 30 min after fluorescein injection, vs vehicle-treated group
Experimental: This test measured the capacity of compounds to inhibit VEGF-induced retinal vascular permeability. Vascular permeability is the cause of severe vision loss in patients suffering from age-related macular degeneration (AMD). Female Dutch rabbits (˜2 kg; Kitayama LABES CO., LTD, Nagano, Japan) were anesthetized with pentobarbital and topically with 0.4% oxybuprocaine hydrochloride. Test articles or vehicle were injected into vitreous cavity after the dilation of the pupils with 0.5% tropicamide eye drop. Recombinant human VEGF165 (500 ng; Sigma-Aldrich Co., St Louis, Mo.) was injected intravitreously 48 hr prior to the measurement of vitreous fluorescein concentration. Rabbits were anesthetized with pentobarbital and sequentially injected sodium fluorescein (2 mg/kg) via the ear vein. Pupils were dilated with 0.5% tropicamide eye drop, and ocular fluorescein levels were measured using the FM-2 Fluorotron Master (Ocumetrics, Mountain View, Calif.) 30 min after fluorescein injection. The fluorescein concentrations in vitreous were obtained at data points that are 0.25 mm apart from posterior-end along an optical axis. Vitreous fluorescence concentration was considered fluorescein leakage from retinal vasculature. The average fluorescence peaks of the test article treated groups were compared with that of the vehicle-treated group.

IC50 (VEGFR2 (KDR)) [nM]	Compound	Inhibition of CNV progression (CNV progression; 3 nmol/eye)	Inhibition of CNV progression (CNV progression; 10 nmol/eye)	inhibition of the leakage of fluorescein (vitreous fluorescein concentration) [1]
50 to 100	1-((2-(7-(4-Isopropylaminocarbonylamino-2-fluorophenoxy)thieno[3,2-b]pyrid methyl-1H-imidazol-5-yl)methyl)-3-isopropyl-1-(2-methoxyethyl)urea [Compound 192]	B (≧40% to <60% inhibition)	–	–
< 50	CCNC(=O)N(CCOC)Cc1ccc(-c2cc3nccc(Oc4ccc(NC(=O)NC5CC5)cc4F)c3s2)nc1 [Compound 2, N-[3-((6-(7-(4-(3-cyclopropylureido)-2-fluorophenoxy)thieno[3,2-b]pyridin-2-yl)pyridin-3-yl)methyl)]-N-(1-ethyl)-N-[3-(2-methoxyethyl)]urea]	B (≧40% to <60% inhibition)	A (greater than or equal to 60% inhibition)	–
< 50	COCCN(C=O)Cc1ccc(-c2cc3nccc(Oc4ccc(NC(=O)NC5CC5)cc4F)c3s2)nc1 [Compound 6, N-((6-(7-(4-(3-cyclopropylureido)-2-fluorophenoxy)thieno[3,2-b]pyridin-2-yl)pyridin-3-yl)methyl)-N-(2-methoxyethyl)formamide]	B (≧40% to <60% inhibition)	A (greater than or equal to 60% inhibition)	–
< 50	COCCN(Cc1ccc(-c2cc3nccc(Oc4ccc(NC(=O)NC5CC5)c(F)c4F)c3s2)nc1)C(C)=O [Compound 26, N-((6-(7-(4-(3-cyclopropylureido)-2,3-difluorophenoxy)thieno[3,2-b]pyridin-2-yl)-pyridin-3-yl)methyl)-N-(2-methoxyethyl)acetamide]	B (≧40% to <60% inhibition)	A (greater than or equal to 60% inhibition)	significant inhibition
< 50	O=C(Nc1ccc(Oc2ccnc3cc(-c4ccc(CN5CCN(C(=O)CO)CC5)cn4)sc23)c(F)c1)NC1CC1 [Compound 74, 1-cyclopropyl-3-(3-fluoro-4-(2-(5-((4-(2-hydroxyacetyl)piperazin-1-yl)methyl)pyridin-2-yl)thieno[3,2-b]pyridin-7-yloxy)phenyl)urea]	A (greater than or equal to 60% inhibition)	A (greater than or equal to 60% inhibition)	significant inhibition
< 50	CC(C)[C@H](N)C(=O)OCC(=O)N1CCN(Cc2ccc(-c3cc4nccc(Oc5ccc(NC(=O)NC6CC6)cc5F)c4s3)nc2)CC1 [Compound 80, (S)-2-(4-((6-(7-(4-(3-cyclopropylureido)-2-fluorophenoxy)thieno[3,2-b]pyridin-2-yl)pyridin-3-yl)methyl)piperazin-1-yl)-2-oxoethyl 2-amino-3-methylbutanoate]	–	–	–
< 50	CS(=O)(=O)CCNCc1ccc(-c2cc3nccc(Oc4ccc(NC(=O)NC5CC5)cc4F)c3s2)nc1 [Compound 100, 1-cyclopropyl-3-(3-fluoro-4-(2-(5-((2-(methylsulfonyl)ethylamino)methyl)pyridin-2-yl)thieno[3,2-b]pyridin-7-yloxy)phenyl)urea]	–	–	–
< 50	CN(CCO)CCn1cc(-c2cc3nccc(Oc4ccc(NC(=O)NC5CC5)cc4F)c3s2)cn1 [Compound 151, 1-cyclopropyl-3-(3-fluoro-4-(2-(1-(2-((2-hydroxyethyl)(methyl)amino)ethyl)-1H-pyrazol-4-yl)thieno[3,2-b]pyridin-7-yloxy)phenyl)urea]	–	–	–
< 50	COCCN(Cc1cnc(-c2cc3nccc(Oc4ccc(NC(=O)NC5CC5)cc4F)c3s2)n1C)C(=O)CO [Compound 209, N-((2-(7-(4-(3-cyclopropylureido)-2-fluorophenoxy)thieno[3,2-b]pyridin-2-yl)-1-methyl-1H-imidazol-5-yl)methyl)-2-hydroxy-N-(2-methoxyethyl)acetamide]	–	–	–
< 50	CN1CCN(C2CCN(C(=O)c3ccc(-c4cc5nccc(Oc6ccc(NC(=O)NC7CC7)cc6F)c5s4)nc3)CC2)CC1 [Compound 234, 1-Cyclopropyl-3-(3-fluoro-4-(2-(5-(4-(4-methylpiperazin-1-yl)piperidine-1-carbonyl)pyridin-2-yl)thieno[3,2-b]pyridin-7-yloxy)phenyl)urea]	B (≧40% to <60% inhibition)	–	–
< 50	O=C(Nc1ccc(Oc2ccnc3cc(-c4cn(CCN5CCOCC5)cn4)sc23)c(F)c1)NC1CC1 [Compound 265]	–	–	–
